Among the data in patent publication US20230373937A1, “INHIBITORS OF SPINSTER HOMOLOG 2 (SPNS2) FOR USE IN THERAPY” (University of Virginia Patent Foundation, priority 2020, published 2023) are IC50 values, retold here.

pIC50: −log10 of the molar value. Counter-ions that a name gives are not always drawn.

This experiment addresses T1, SPNS2 (Mus musculus, UniProt Q91VM4).
T1 construct: expressed in transfected cells; host or cells: HeLa or U937 cells
T1 sequence (Q91VM4 1-549): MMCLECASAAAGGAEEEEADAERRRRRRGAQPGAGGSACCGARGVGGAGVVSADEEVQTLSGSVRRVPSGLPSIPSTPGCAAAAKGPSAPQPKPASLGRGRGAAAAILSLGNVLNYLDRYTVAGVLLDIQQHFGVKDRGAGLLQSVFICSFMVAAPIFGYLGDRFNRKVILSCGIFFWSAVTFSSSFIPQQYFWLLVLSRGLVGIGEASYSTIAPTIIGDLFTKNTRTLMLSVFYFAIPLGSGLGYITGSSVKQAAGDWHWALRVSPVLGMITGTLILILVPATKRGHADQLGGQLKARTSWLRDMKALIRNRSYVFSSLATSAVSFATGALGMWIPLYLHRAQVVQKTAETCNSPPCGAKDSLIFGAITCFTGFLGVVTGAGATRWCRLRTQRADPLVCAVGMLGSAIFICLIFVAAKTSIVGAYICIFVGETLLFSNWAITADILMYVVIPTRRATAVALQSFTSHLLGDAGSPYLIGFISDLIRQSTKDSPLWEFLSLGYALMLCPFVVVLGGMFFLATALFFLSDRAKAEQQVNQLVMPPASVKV
In words: S1P transporter assay: S1P release from whole cells expressing SPNS2. The following applies: HeLa or U937 cells expressing mouse SPNS2; 18 hours; S1P in media measured by LC-MS; read-out: IC50 (in vitro inhibition against SPNS2). It is filed as cell-based. The protocol: Transporter assays are vectorial and therefore require measurement of the transported analyte in different compartments. The S1P transporter SPNS2 only exports S1P, which obviates measuring uptake of S1P into transporter-expressing cells. Thus, transporter activity was determined by quantifying S1P release from whole cells expressing SPNS2. SPNS2 inhibitor potency was assessed using whole cell assays. HeLa or U937 cells expressing mouse SPNS2 were used to determine inhibitor potency (IC50). Cells were plated onto 12 well plates and assayed when the cell monolayers became confluent. Cell growth media (RPMI-1640 containing 10% fetal bovine serum) was replaced with 2 mL of serum-free media (RPMI-1640) containing fatty acid free bovine serum albumin (BSA) (0.2% w/v) and supplemented with 4-deoxypyridoxine (DOP) (1 mM), NaF (2 mM), Na3VO4 (0.2 mM) to inhibit S1P degradation. Test articles (1×10-9-1×10^-4 M) were assayed in duplicate or triplicate. After 18 hours, media was collected, an internal recovery standard (0.005 mL of 5×10^-7 M deuterated (d7) S1P in methanol) was added, the BSA was precipitated with trichloroacetic acid and the bound S1P extracted with methanol. S1P and S1P-d7 were measured by liquid chromatography mass spectrometry. Inhibitor potency at the human SPNS2 ortholog was determined by an analogous assay using U-937 cells, which endogenously express human SPNS2.
One may read the pIC50 as the negative decadic logarithm of the IC50, by convention in mol/L. Regarding `CCCCCCCCCCc1ccc(-c2noc(CNC(=O)CNC)n2)cc1` [Compound 9l, N-((3-(4-decylphenyl)-1,2,4-oxadiazol-5-yl)methyl)-2-(methylamino)acetamide hydrochloride], the pIC50 was at least 5.70. For `CCCCCCCCCCc1ccc(-c2noc(CNC(=O)[C@@H]3CCN3)n2)cc1` [Compound 9z, (S)—N-((3-(4-decylphenyl)-1,2,4-oxadiazol-5-yl)methyl)azetidine-2-carboxamide 2,2,2-trifluoroacetate] the value was at least 5.70; for `CCCCCCCCCOc1ccc(-c2noc(CCCN)n2)cc1` [Compound 5t, 3-(3-(4-(nonyloxy)phenyl)-1,2,4-oxadiazol-5-yl)propan-1-amine hydrochloride], below 5.70; for `CCCCCCCCCCc1ccc(-c2noc(CNC(=O)C[C@@H]3CCNC3)n2)cc1` [Compound 9k, (S)—N-((3-(4-decylphenyl)-1,2,4-oxadiazol-5-yl)methyl)-2-(pyrrolidin-3-yl)acetamide hydrochloride], at least 5.70. For `CCCCCCCCCCc1ccc(-c2noc(CNC(=O)[C@@H]3CCNC3)n2)cc1` [Compound 9j, (R)—N-((3-(4-decylphenyl)-1,2,4-oxadiazol-5-yl)methyl)pyrrolidine-3-carboxamide hydrochloride] the value was at least 5.70; for `CCCCCCCCCCc1ccc(-c2noc(CCN)n2)cc1` [Compound 5b, 2-(3-(4-decylphenyl)-1,2,4-oxadiazol-5-yl)ethan-1-amine 2,2,2-trifluoroacetate], at least 5.70; for `CCCCCCCCCCc1ccc(-c2noc(CN)n2)cc1` [Compound 5f, (3-(4-decylphenyl)-1,2,4-oxadiazol-5-yl)methanamine 2,2,2-trifluoroacetate], at least 5.70.

Consider `CCCCCCCCCCc1ccc(-c2noc(CCCN3CCOCC3)n2)cc1` [Compound 6f, 4-(3-(3-(4-decylphenyl)-1,2,4-oxadiazol-5-yl)propyl)morpholine hydrochloride], for which the pIC50 is below 5.70. For `CCCCCCCCCCc1ccc(-c2noc(CN3CCNCC3)n2)cc1` [Compound 5h, 3-(4-decylphenyl)-5-(piperazin-1-ylmethyl)-1,2,4-oxadiazole 2,2,2-trifluoroacetate] the value was at least 5.70; for `CCCCCCCCCCc1ccc(-c2noc(CNC(=O)[C@@H](N)CO)n2)cc1` [Compound 9s, (S)-2-amino-N-((3-(4-decylphenyl)-1,2,4-oxadiazol-5-yl)methyl)-3-hydroxypropanamide hydrochloride], below 5.70. Turning to `CCCCCCCCNC(=O)c1ccc(-c2noc(CCCN)n2)cc1` [Compound 13d, 4-(5-(3-aminopropyl)-1,2,4-oxadiazol-3-yl)-N-octylbenzamide hydrochloride], the pIC50 was below 5.70. With `CCCCCCCCCCc1ccc(-c2noc(CNC(=O)[C@@H](N)CCCC(=O)OC)n2)cc1` [Compound 9aa, methyl (S)-5-amino-6-(((3-(4-decylphenyl)-1,2,4-oxadiazol-5-yl)methyl)amino)-6-oxohexanoate hydrochloride] the figure was at least 5.70. For `CCCCCCCCNC(=O)c1ccc(-c2noc([C@@H]3CCNC3)n2)cc1` [Compound 13c, (R)—N-octyl-4-(5-(pyrrolidin-3-yl)-1,2,4-oxadiazol-3-yl)benzamide hydrochloride] the value was below 5.70; for `CCCCNC(=O)c1ccc(-c2noc(CCCN)n2)cc1` [Compound 13b, 4-(5-(3-aminopropyl)-1,2,4-oxadiazol-3-yl)-N-butylbenzamide hydrochloride], below 5.70. For `CCCCCCCCCCc1ccc(-c2noc([C@@H]3CCN(C(=O)[C@@H](N)C(C)C)C3)n2)cc1` [Compound 9ai, (S)-2-amino-1-((R)-3-(3-(4-decylphenyl)-1,2,4-oxadiazol-5-yl)pyrrolidin-1-yl)-3-methylbutan-1-one 2,2,2-trifluoroacetate] the value was at least 5.70. For the molecule `CCCCCCCCCCc1ccc(-c2noc(CCCN3CCCC3)n2)cc1` [Compound 6d, 3-(4-decylphenyl)-5-(3-(pyrrolidin-1-yl)propyl)-1,2,4-oxadiazole hydrochloride], the negative-log IC50 (pIC50) is below 5.70. For `CCCCCCCCCCc1ccc(-c2noc(C[C@H](C)N)n2)cc1` [Compound 5c, (S)-1-(3-(4-decylphenyl)-1,2,4-oxadiazol-5-yl)propan-2-amine 2,2,2-trifluoroacetate] the value was below 5.70.

`CCCCCCCCCCc1ccc(-c2noc(CCNC(=O)CN)n2)cc1` [Compound 9h, 2-amino-N-(2-(3-(4-decylphenyl)-1,2,4-oxadiazol-5-yl)ethyl)acetamide hydrochloride]: the negative-log IC50 (pIC50) is at least 5.70. With `CCCCCCCCCCc1ccc(-c2noc(CNC(=O)CN)n2)cc1` [Compound 9b, 2-amino-N-((3-(4-decylphenyl)-1,2,4-oxadiazol-5-yl)methyl)acetamide hydrochloride] the figure was below 5.70; with `CCCCCCCCCCc1ccc(-c2noc(CNC(=O)C[C@@H](O)CN)n2)cc1` [Compound 9y, (R)-4-amino-N-((3-(4-decylphenyl)-1,2,4-oxadiazol-5-yl)methyl)-3-hydroxybutanamide hydrochloride], below 5.70. For `CCCCCCCCCCc1ccc(-c2noc(CCCN3CCCCC3)n2)cc1` [Compound 6e, 3-(4-decylphenyl)-5-(3-(piperidin-1-yl)propyl)-1,2,4-oxadiazole hydrochloride] the value was below 5.70; for `CCCCCCCCCCc1ccc(-c2noc(CCCNC)n2)cc1` [Compound 5m, 3-(3-(4-decylphenyl)-1,2,4-oxadiazol-5-yl)-N-methylpropan-1-amine hydrochloride], below 5.70.

In the case of `CCCCCCCCCCc1ccc(-c2noc([C@@H]3CCC[C@@H](N)C3)n2)cc1` (racemic) [Compound 5q, (±)-trans-3-(3-(4-decylphenyl)-1,2,4-oxadiazol-5-yl)cyclohexan-1-amine hydrochloride], the negative logarithm of the IC50 (pIC50) was below 5.70. As for `CCCCCCCCCCc1ccc(-c2noc(CNC(=O)[C@@H](N)[C@@H](C)CC)n2)cc1` [Compound 9n, (2S,3S)-2-amino-N-((3-(4-decylphenyl)-1,2,4-oxadiazol-5-yl)methyl)-3-methylpentanamide hydrochloride], the pIC50 is below 5.70.

Consider `CCCCCCCCCCc1ccc(-c2noc(C(Cl)CCN)n2)cc1` (racemic) [Compound 5k, (±)-3-chloro-3-(3-(4-decylphenyl)-1,2,4-oxadiazol-5-yl)propan-1-amine hydrochloride], for which the negative-log IC50 (pIC50) was below 5.70. With `CCCCCCCCCCc1ccc(-c2noc([C@H](CCCCN)NC(C)=O)n2)cc1` [Compound 21, (S)—N-(5-amino-1-(3-(4-decylphenyl)-1,2,4-oxadiazol-5-yl)pentyl)acetamide hydrochloride] the figure was below 5.70. With `CCCCCCCCCCc1ccc(-c2noc(CNC(=O)CCN)n2)cc1` [Compound 9e, 3-amino-N-((3-(4-decylphenyl)-1,2,4-oxadiazol-5-yl)methyl)propanamide hydrochloride] the figure was below 5.70; with `CCCCCCCCc1ccc(CCc2noc(CCCN)n2)cc1` [Compound 5s, 3-(3-(4-octylphenethyl)-1,2,4-oxadiazol-5-yl)propan-1-amine hydrochloride], below 5.70; with `CCCCCCCCCCc1ccc(-c2noc([C@H](N)CCCCN)n2)cc1` [Compound 19d, (R)-1-(3-(4-decylphenyl)-1,2,4-oxadiazol-5-yl)pentane-1,5-diamine dihydrochloride], below 5.70.
